Measured values: patent US10081632B2, “Substituted tetrahydropyrido[3′,2′:4,5]pyrrolo[1,2-α]pyrazine-2-carboxamides as RSK inhibitors” (Phoenix Molecular Designs, priority 2016, dated 2018)
Each block holds one compound with its values, some of them ahead of it.

Key:
4T1 cells [1] = assay: Monolayer growth inhibition, Alamar blue assay; type: cell-based; conditions: Mus musculus, 5 days, single dose on day 1
Description: (§1) In all instances a single dose was given on day 1 of the experiment.

HCC1143 cells [2] = assay: Monolayer growth inhibition, Alamar blue assay; type: cell-based; conditions: Homo sapiens, 5 days, single dose on day 1
Description: as §1

HCC1937 cells [3] = assay: Monolayer growth inhibition, Alamar blue assay; type: cell-based; conditions: Homo sapiens, 5 days, single dose on day 1
Description: as §1

JIMT-1 cells [4] = assay: Monolayer growth inhibition, Alamar blue assay; type: cell-based; conditions: Homo sapiens, 5 days, single dose on day 1
Description: as §1

MDA-MB-231 cells [5] = assay: Monolayer growth inhibition, Alamar blue assay; type: cell-based; conditions: Homo sapiens; MDA-MB-231 (TNBC), 5 days, single dose on day 1
Description: as §1

MDA-MB-435 cells [6] = assay: Monolayer growth inhibition, Alamar blue assay; type: cell-based; conditions: Homo sapiens, 5 days, single dose on day 1
Description: as §1

MDA-MB-468 cells [7] = assay: Monolayer growth inhibition, Alamar blue assay; type: cell-based; conditions: Homo sapiens, 5 days, single dose on day 1
Description: as §1

PC3 cells [8] = assay: Monolayer growth inhibition, Alamar blue assay; type: cell-based; conditions: Homo sapiens, PC-3; PC3 (Prostate), 5 days, single dose on day 1
Description: as §1

SUM149 cells [9] = assay: Monolayer growth inhibition, Alamar blue assay; type: cell-based; conditions: Homo sapiens, 5 days, single dose on day 1
Description: as §1

SUM149-PTXR cells [10] = assay: Monolayer growth inhibition, Alamar blue assay; type: cell-based, Human; conditions: Homo sapiens; SUM149-PTXR (TNBC, BRCA Mutant), 5 days, single dose on day 1
Description: as §1

T47D cells [11] = assay: Monolayer growth inhibition, Alamar blue assay; type: cell-based, Human; conditions: Homo sapiens, T47D (ER/PR), 5 days, single dose on day 1
Description: as §1

All cell lines [12] = assay: Monolayer growth inhibition, Alamar blue assay, range over all cell lines; type: cell-based; conditions: 120 h; range of IC50 over all cell lines of the table; read-out: IC50 Values - Alamar Blue (5 Days), Range, All
Description: as §1

HCC1937 cells [13] = assay: Monolayer growth inhibition, crystal violet assay; type: cell-based; conditions: Homo sapiens, 5 days, single dose on day 1
Description: (§2) In all instances a single dose was given on day 1 of the experiment. […] Complete (100%) growth suppression was achievable with several of the compounds in multiple different cell lines.

JIMT-1 cells [14] = assay: Monolayer growth inhibition, crystal violet assay; type: cell-based; conditions: Homo sapiens, 5 days, single dose on day 1
Description: as §2

MDA-MB-468 cells [15] = assay: Monolayer growth inhibition, crystal violet assay; type: cell-based; conditions: Homo sapiens, 5 days, single dose on day 1
Description: as §2

T47D cells [16] = assay: Monolayer growth inhibition, crystal violet assay; type: cell-based; conditions: Homo sapiens, T47D (ER/PR), 5 days, single dose on day 1
Description: as §2

4T1 cells [17] = assay: Monolayer growth inhibition, crystal violet assay; type: cell-based; conditions: Mus musculus, 5 days, single dose on day 1
Description: as §1

HCC1143 cells [18] = assay: Monolayer growth inhibition, crystal violet assay; type: cell-based; conditions: Homo sapiens, 5 days, single dose on day 1
Description: as §1

MDA-MB-231 cells [19] = assay: Monolayer growth inhibition, crystal violet assay; type: cell-based; conditions: Homo sapiens; MDA-MB-231 (TNBC), 5 days, single dose on day 1
Description: as §1

MDA-MB-435 cells [20] = assay: Monolayer growth inhibition, crystal violet assay; type: cell-based; conditions: Homo sapiens; MDA-MB-435 (Melanoma), 5 days, single dose on day 1
Description: as §1

PC3 cells [21] = assay: Monolayer growth inhibition, crystal violet assay; type: cell-based; conditions: Homo sapiens, PC-3; PC3 (Prostate), 5 days, single dose on day 1
Description: as §1

SUM149 cells [22] = assay: Monolayer growth inhibition, crystal violet assay; type: cell-based; conditions: Homo sapiens, 5 days, single dose on day 1
Description: as §1

SUM149-PTXR cells [23] = assay: Monolayer growth inhibition, crystal violet assay; type: cell-based; conditions: Homo sapiens; SUM149-PTXR (TNBC, BRCA Mutant), 5 days, single dose on day 1
Description: as §1

All cell lines [24] = assay: Monolayer growth inhibition, crystal violet assay, range over all cell lines; type: cell-based; conditions: 120 h; range of IC50 over all cell lines of the table; read-out: IC50 Values - Crystal Violet (5 Days), Range, All
Description: as §2

4T1 cells [25] = assay: Soft agar growth inhibition assay; type: cell-based; conditions: Mus musculus, 4T1, 240 h, 4T1, 10 days; read-out: IC50 Values, 10 Days, Soft Agar
Description: Two agar (Alfa Aesar) solutions (0.8% w/v and 0.4% w/v) were prepared in ultrapure water. The 0.8% agar solution was mixed in equal volumes with 2× media previously prepared from powder (Life Technologies) following the manufacturer's instructions and filter sterilized. The 0.8% agar and media solution was added to 24 well plates (Mandel Scientific) at 500 μl per well. The plates were placed in a humidified incubator at 37° C. with 5% CO2. Next, the 0.4% agar solution was mixed in equal volumes with 2× media. Breast cancer cell lines were added to this solution to achieve a final concentration of 2×10^4 cells per well and […] was added to each well on top of the bottom agar and media layer. […] The plates were returned to the incubator for 10-32 days, with a re-dosing of compounds or DMSO every 7 days. After 10-32 days, colonies were counted in 3 different fields of view for each well.
Representative compounds described herein were tested in the soft agar growth inhibition assay against the 4T1 breast cancer cell line.

CD34+ cells = assay: Colony forming unit hematopoietic stem cell assay; type: cell-based, human; conditions: Homo sapiens, Hematopoietic stem cell, 336 h, CD34+ HSC, 14 days; read-out: IC50 Values - 14 days, CFU Assay
Description: The hematopoietic colony forming cell assay was conducted based on a protocol outlined by StemCell Technologies. […] Following the addition of CD34^+ cells isolated from human cord blood or peripheral blood (StemCell Technologies) at a final concentration of 5×10^2 cells per dish, the tubes were vortexed and allowed to stand for 5 minutes at room temperature. Next, the MethoCult mixtures were dispensed into 35 mm dishes (Corning Incorporated) through blunt end needles (StemCell Technologies) and 5 ml syringes (BD Biosciences) at a volume of 1.1 ml per dish. The medium was evenly distributed across the surface of each dish by gentle tilting and rotation. The dishes were then placed in a 100 mm culture dish (Grenier Bio-One) containing additional 35 mm dishes with sterile water to maintain humidity. […] The number of myeloid and erythroid derived colonies in both the treated and control dishes were counted and compared.

[26] = HCC1937, HCC1937 (TNBC, BRCA Mutant)
[27] = SUM149, SUM149 (TNBC, BRCA Mutant)

IC50 (4T1 cells [1]; 4T1 (TNBC)): 3.8 ± 1.7 µM
IC50 (HCC1143 cells [2]; HCC1143 (TNBC)): 5 ± 1.7 µM
IC50 (HCC1937 cells [3]; HCC1937 (TNBC, BRCA Mutant)): 6.8 ± 1.3 µM
IC50 (MDA-MB-231 cells [5]): 10.3 ± 0.7 µM
IC50 (MDA-MB-435 cells [6]; MDA-MB-435 (Melanoma)): 1.2 ± 1 µM
IC50 (MDA-MB-468 cells [7]; MDA-MB-468 (TNBC)): 2.1 ± 1.1 µM
IC50 (PC3 cells [8]): 6 ± 3.2 µM
IC50 (T47D cells [11]): 5.7 ± 2.1 µM
IC50 (HCC1937 cells [13]; HCC1937 (TNBC, BRCA Mutant)): 7.3 ± 3.2 µM
IC50 (MDA-MB-468 cells [15]; MDA-MB-468 (TNBC)): 1.6 ± 0.7 µM
IC50 (T47D cells [16]): 6.7 ± 1.6 µM
IC50 (4T1 cells [17]; 4T1 (TNBC)): 2 ± 0.6 µM
IC50 (HCC1143 cells [18]; HCC1143 (TNBC)): 8.9 ± 3.2 µM
IC50 (MDA-MB-231 cells [19]): 5.1 ± 2 µM
IC50 (MDA-MB-435 cells [20]): 1 ± 0.3 µM
IC50 (PC3 cells [21]): 2.7 ± 1.2 µM
Structure (SMILES): C[C@@H]1CNC(=O)c2cc3ccc(C(=O)Nc4cnn(Cc5ccccc5N)c4)nc3n21 [Compound 17, (R)—N-(1-(2-aminobenzyl)-1H-pyrazol-4-yl)-9-methyl-6-oxo-6,7,8,9-tetrahydropyrido[3′,2′:4,5]pyrrolo[1,2-a]pyrazine-2-carboxamide]
IC50 (JIMT-1 cells [4]; JIMT-1 (HER2)): 12.6 ± 5.9 µM
IC50 (SUM149 cells [9]; SUM149 (TNBC, BRCA Mutant)): 8.3 ± 4.9 µM
IC50 (SUM149-PTXR cells [10]): 4.2 ± 1.5 µM
IC50 (All cell lines [12]): 1.2 to 12.6 µM
IC50 (JIMT-1 cells [14]; JIMT-1 (HER2)): 7.4 ± 2.5 µM
IC50 (SUM149 cells [22]; SUM149 (TNBC, BRCA Mutant)): 5.3 ± 2.2 µM
IC50 (SUM149-PTXR cells [23]): 5.2 ± 0.6 µM
IC50 (All cell lines [24]): 1 to 8.9 µM

IC50 (4T1 cells [1]; 4T1, 4T1 (TNBC)): 8.8 ± 2.1 µM
IC50 (HCC1143 cells [2]; HCC1143, HCC1143 (TNBC)): 3.6 ± 2.7 µM
IC50 (HCC1937 cells [3]; [26]): 9.7 ± 3.9 µM
IC50 (MDA-MB-435 cells [6]; MDA-MB-435, MDA-MB-435 (Melanoma)): 13.7 ± 3.4 µM
IC50 (MDA-MB-468 cells [7]; MDA-MB-468, MDA-MB-468 (TNBC)): 13.3 ± 4.1 µM
IC50 (PC3 cells [8]): 11.5 ± 3.4 µM
IC50 (T47D cells [11]; T47D): 7.8 ± 3.7 µM
IC50 (HCC1937 cells [13]; [26]): 12 ± 0.2 µM
IC50 (MDA-MB-468 cells [15]; MDA-MB-468, MDA-MB-468 (TNBC)): 11.3 ± 0.7 µM
IC50 (T47D cells [16]; T47D): 8.5 ± 0.7 µM
IC50 (4T1 cells [17]; 4T1, 4T1 (TNBC)): 6.9 ± 3 µM
IC50 (HCC1143 cells [18]; HCC1143, HCC1143 (TNBC)): 12.6 ± 3.4 µM
IC50 (MDA-MB-435 cells [20]): 8.2 ± 2.5 µM
IC50 (PC3 cells [21]): 5.9 ± 1.4 µM
IC50 (4T1 cells [25]): 3.8 µM
IC50 (CD34+ cells): 23.8 µM
Structure (SMILES): C[C@@H]1CNC(=O)c2cc3ccc(NC(=O)c4cnn(Cc5ccccc5)c4)nc3n21 [Compound 15, (R)-1-benzyl-N-(9-methyl-6-oxo-6,7,8,9-tetrahydropyrido[3′,2′:4,5]pyrrolo[1,2-a]pyrazin-2-yl)-1H-pyrazole-4-carboxamide]
IC50 (JIMT-1 cells [4]; JIMT-1, JIMT-1 (HER2)): 8.3 ± 1.8 µM
IC50 (SUM149 cells [9]; [27]): 11.7 ± 2.8 µM
IC50 (SUM149-PTXR cells [10]): 9.2 ± 3 µM
IC50 (All cell lines [12]): 3.6 to 21.3 µM
IC50 (JIMT-1 cells [14]; JIMT-1, JIMT-1 (HER2)): 11.2 ± 0.2 µM
IC50 (SUM149 cells [22]; [27]): 9.9 ± 3.1 µM
IC50 (SUM149-PTXR cells [23]): 8.8 ± 2.2 µM
IC50 (All cell lines [24]): 5.9 to 21 µM
